Laboratory results as given in US20240345095A1, “AN ASSAY FOR DETERMINING GASTROINTESTINAL PERMEABILITY BY DETERMINING A RATIO OF THE CONCENTRATION OF LACTULOSE TO THE CONCENTRATION OF GALACTOSE IN THE BLOOD SAMPLE” (TriviumVet Designated Activity Company, priority 2021, published 2024).

How the values were obtained:
[1] = tested on: gastric ulcers; settings: foals, ulcers associated with intravenous administration of high-dose NSAIDs; cited from earlier work
[2] = molecular target: H-2 receptors on the parietal cell (Homo sapiens, UniProt P25021); settings: human subjects, administered intravenously; cited from earlier work
Chain of H-2 receptors on the parietal cell (P25021 whole entry): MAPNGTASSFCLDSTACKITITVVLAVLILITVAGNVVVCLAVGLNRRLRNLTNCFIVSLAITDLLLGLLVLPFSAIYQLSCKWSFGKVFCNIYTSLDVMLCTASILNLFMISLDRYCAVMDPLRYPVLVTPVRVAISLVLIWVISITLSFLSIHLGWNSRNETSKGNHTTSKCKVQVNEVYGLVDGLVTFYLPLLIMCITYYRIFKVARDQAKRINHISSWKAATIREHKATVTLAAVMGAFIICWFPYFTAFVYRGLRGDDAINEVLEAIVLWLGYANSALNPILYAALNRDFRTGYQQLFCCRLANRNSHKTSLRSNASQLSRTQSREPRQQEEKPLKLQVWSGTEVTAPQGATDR

[3] = Plasma absorption time course of lactulose and galactose after oral administration (findings stated in the summary); type: in vivo

sucralfate
Effect on gastric ulcers [1]: protective effect

NC(N)=Nc1nc(CSCCC(N)=NS(N)(=O)=O)cs1 [famotidine]
Time to pharmacological tolerance [2]: 12-72 hours

OC[C@H]1O[C@@H](O[C@@H]2[C@@H](CO)OC(O)(CO)[C@H]2O)[C@H](O)[C@@H](O)[C@H]1O (mixture of isomers) [Lactulose, lactulose]
Time after which the rate of lactulose absorption slows ([3]; after oral administration): approximately 60 minutes | Period over which lactulose absorption occurs ([3]; health and disease states, after oral administration): up to 3 hours

O=C[C@H](O)[C@@H](O)[C@@H](O)[C@H](O)CO [galactose]
Time at which galactose absorption peaks ([3]; after oral administration): ≤ 15 min | Time galactose remains present in plasma at measurable micromolar concentrations ([3]; after oral administration, majority of individuals tested): approximately 60 minutes | Time to peak plasma concentrations of galactose ([3]; galactose concentrations below 2% in the oral solution): ≤ 5 min
